{
  "source": "patent US20200069685A1",
  "about": "“Dosing schedule for a combination of Ceritinib and an anti-PD-1 antibody molecule” (NOVARTIS AG, priority 2017, published 2020)",
  "format_in_all_cases": "in vivo, human",
  "key": {"[1]": {"assay": "Ceritinib steady state PK (AUC0-24 and Cmax) in the ceritinib and nivolumab combination cohorts", "conditions": "preliminary; ceritinib in combination with nivolumab", "protocol": "The doses were reduced from 750 mg in the steps of 150 mg down to the lowest 300 mg. If the patient required doses lower than 300 mg, ceritinib was discontinued. Approximately 54% of patients initiating treatment at the recommended dose of 750 mg fasted required at least one dose adjustment due to adverse reaction, with a median time to first dose reduction of approximately 7 weeks. However, based on the preliminary data from 36 patients, who were enrolled to 4 cohorts to the concomitant combination therapy of ceritinib and nivolumab, the rates of severe rash (even grade 3) were unexpectedly higher. The cohorts were as follows: cohort 1 (n=8), ceritinib 450 mg daily with a low fat meal in combination with nivolumab 3 mg/kg Q2W; cohort 2 (n=6), ceritinib 450 mg daily with a low fat meal in combination with nivolumab 3 mg/kg Q2W; cohort 3 (n=11), ceritinib 300 mg daily with a low fat meal in combination with nivolumab 3 mg/kg Q2W; cohort 4 (n=11), ceritinib 300 mg daily with a low fat meal in combination with nivolumab 3 mg/kg Q2W. Both dose levels, i.e. 450 mg and 300 mg of ceritinib, administered with the low fat meal led to severe rash. The 450 mg dose level had higher rates of some adverse events, especially grade-3 rash, than expected based on data from either single agent. […]"}, "[2]": {"assay": "Food effect study of ceritinib in healthy subjects", "conditions": "single oral dose 500 mg"}, "[3]": {"assay": "Relative bioavailability study in healthy subjects, light snack cohort", "conditions": "light snack (approximately 100-300 calories and 1.5 grams of fat), single 750 mg oral dose"}, "[4]": {"assay": "Ceritinib alone: side effects and dose adjustments in patients", "protocol": "The doses were reduced from 750 mg in the steps of 150 mg down to the lowest 300 mg. If the patient required doses lower than 300 mg, ceritinib was discontinued. Approximately 54% of patients initiating treatment at the recommended dose of 750 mg fasted required at least one dose adjustment due to adverse reaction, with a median time to first dose reduction of approximately 7 weeks. However, based on the preliminary data from 36 patients, who were enrolled to 4 cohorts to the concomitant combination therapy of ceritinib and nivolumab, the rates of severe rash (even grade 3) were unexpectedly higher. The cohorts were as follows: cohort 1 (n=8), ceritinib 450 mg daily with a low fat meal in combination with nivolumab 3 mg/kg Q2W; cohort 2 (n=6), ceritinib 450 mg daily with a low fat meal in combination with nivolumab 3 mg/kg Q2W; cohort 3 (n=11), ceritinib 300 mg daily with a low fat meal in combination with nivolumab 3 mg/kg Q2W; cohort 4 (n=11), ceritinib 300 mg daily with a low fat meal in combination with nivolumab 3 mg/kg Q2W. Both dose levels, i.e. 450 mg and 300 mg of ceritinib, administered with the low fat meal led to severe rash. The 450 mg dose level had higher rates of some adverse events, especially grade-3 rash, than expected based on data from either single agent. The proportion of patients with grade-3 rash was higher at the 450 mg dose level, 4/14 patients (29%), than at the 300 mg dose level, 3/22 patients (14%). With regard to the efficacy of the combination therapy, of the 14 patients treated at the 450 mg dose level, 9 (64%) achieved a confirmed partial response. Of the 22 patients treated at the 300 mg dose level, 4 (18%) achieved a confirmed complete (1 patient) or partial (3 patients) response; however, limited follow up, especially for cohort 4, confounded the assessment of confirmed response. The disease control rate (DCR) was similar for the 450 mg and 300 mg dose levels, 79% and 82% respectively. […] However, the 300 mg dose level appeared to have a lower number of objective responses, although this observation was based on a small number of patients with limited follow-up. […] Therefore, based on the safety, efficacy, and PK data a new beneficial dosing regimen is provided that is expected to improve tolerability while maintaining exposure similar to that observed at the 450 mg dose level. We provide herein a dosing regimen for the combination therapy of ceritinib and an anti-PD-1 antibody molecule, where ceritinib is administered for 2 cycles before initiation of combination therapy with nivolumab. […]"}, "[5]": {"conditions": "high-fat meal (approximately 1000 calories and 58 grams of fat)"}, "[6]": {"conditions": "low-fat meal (approximately 330 calories and 9 grams of fat)"}},
  "data": [
    {"smiles": "Cc1cc(Nc2ncc(Cl)c(Nc3ccccc3S(=O)(=O)C(C)C)n2)c(OC(C)C)cc1C1CCNCC1", "note": "[ceritinib, 5-chloro-N2-(2-isopropoxy-5-methyl-4-(piperidin-4-yl)phenyl)-N4-[2-(propane-2-sulfonyl)-phenyl]-pyrimidine-2,4-diamine]", "values": [
      {"measurement": "steady state exposure (AUC0-24 and Cmax) at 300 mg with food relative to 450 mg with food", "setting": "[1]", "result": "60-65%"},
      {"measurement": "increase of AUCinf compared to the fasted state", "setting": "[2]; [5]", "result": 73, "unit": "%"},
      {"measurement": "increase of Cmax compared to the fasted state", "setting": "[2]; [5]", "result": 41, "unit": "%"},
      {"measurement": "increase of AUCinf compared to the fasted state", "setting": "[2]; [6]", "result": 58, "unit": "%"},
      {"measurement": "increase of Cmax compared to the fasted state", "setting": "[2]; [6]", "result": 43, "unit": "%"},
      {"measurement": "increase of AUCinf compared to the fasted condition", "setting": "[3]", "result": 54, "unit": "%"},
      {"measurement": "increase of Cmax compared to the fasted condition", "setting": "[3]", "result": 45, "unit": "%"},
      {"measurement": "rash", "setting": "[4]", "result": "observed rarely"},
      {"measurement": "side effects observed", "setting": "[4]", "result": "nausea, diarrhea, vomiting, fatigue, ALT/AST elevation, constipation, abdominal pain"},
      {"measurement": "median time to first dose reduction", "setting": "[4]; 750 mg fasted", "result": "approximately 7 weeks"},
      {"measurement": "patients who required at least one dose adjustment due to adverse reaction", "setting": "[4]; recommended dose of 750 mg fasted", "result": "Approximately 54%"}
    ]}
  ]
}
